According to publication PMC8414802, “Hair Cell Generation in Cochlear Culture Models Mediated by Novel γ-Secretase Inhibitors” (Frontiers in Cell and Developmental Biology, 2021):
Like-named read-outs stand apart in the source and are kept apart here.

Tests used:
[1] = test system: Notch-dependent expression of ATOH1 in LS174T cells; assay: ATOH1 expression induction in LS174T cell line by GSIs (RT-PCR); type: cell-based, human; conditions: GSI treatment 72 h, fold-change vs 0.05% DMSO, read-out: IC50 for ATOH1 expression upregulation
Method: The human colon cancer cell line LS174T (CL-188; ATCC) was cultured without antibiotics in 1% FBS/Eagle’s Minimum Essential Medium (MEM; Thermo Fisher) ([Asakura et al., 2018]). […]
Cells or tissue were lysed using RLT Lysis Buffer (Qiagen) and high purity RNA was prepared on the MagNA Pure instrument using MagNA Pure 96 Cellular RNA LV Kit (Roche). Reagents from Thermo Fisher were used for cDNA synthesis by reverse transcription using random hexamers. Resulting cDNA was RNAse H treated and amplified by TaqMan GEX mastermix and PCR primers and probes for human ATOH1 (Hs00944192_s1) and TBP (Hs00427620_m1), mouse Tbp (Mm00446971_m1), Atoh1 (Mm00476035_s1), Hes5 (Mm00439311_g1), Pouf4s (Mm04213795_s1), and Myo7a (Mm01274015_m1) on the Applied Biosystems QuantStudio 7 Flex Real-Time PCR System. Normalized to Tbp, relative gene expression fold-change was quantified and compared between experimental and control conditions by ΔΔCt calculation.
Statistical analysis was performed with GraphPad Prism software (Prism9; GraphPad Software Inc., San Diego, CA, United States). For explant cultures, when the number of explants/replicates was not sufficient to test for Gaussian distribution normal distribution of the data was assumed based on previous experiments ([Perny et al., 2017]; [Erni et al., 2019]). Alternatively, the distribution of the datasets was tested by D’Agostino and Pearson normality test. Unpaired t-tests were used to compare parametric data sets of two groups. Welch’s correction was applied if variances were not equal. For non-parametric data, the Mann–Whitney test was adopted. One-way ANOVA was used to determine the difference in means among multiple groups and multiple comparison correction was tested. Graphs indicate the single data point, the mean values ± standard deviation. IC50s were calculated by non-linear regression of data normalized by percent change from controls to compare multiple experiments. Differences in IC50s from Best fit data were compared by Least Squares (F-test; Extra sum of squares; alpha = 0.05).
To measure the relative potency between different GSIs, a pharmacological assay was initially used to identify the dose ranges effective to induce ATOH1 expression. The cell line LS174T, a human colorectal adenocarcinoma, was used to evaluate Notch-dependent expression of ATOH1 ([Kazanjian et al., 2010]). Two compounds from Eli Lilly, designated LY3056480 (CPD3) and LY3056359 (CPD8) (Figures 1A,B) were compared with the commercially available GSIs LY411575 and DAPT. […] The intermediate potency of CPD3 and 8 was likely to be adequate to achieve levels above the IC50 after dilution into perilymph in the inner ear.

[2] = test system: Myo7a+ hair cells in rat cochlear organoids; assay: Rat cochlear organoids, hair cell differentiation; type: cell-based; conditions: for Total hair cells per organoid prior to normalization: end of differentiation, GSI 5 μM
Method: On day 0, the cochlear sensory epithelium was dissected and the OC was separated from the modiolus and stria vascularis, as described above, from either Wistar rat pups (P2), Lgr5-GFP mice (P0–P2) or Atoh1-GFP mice (P0–P2). To separate the sensory epithelial layer from underlying mesenchyme and neurons, the OC was placed in a 100 μl drop of Matrisperse Cell Recovery Solution (Corning) for 1 h at RT, then delaminated with the aid of forceps. Gentle enzymatic dissociation of hair cells and supporting cells followed with 100 μl drop of TrypLE (Gibco), 20 min at 37°C, then mechanical trituration in DMEM/F12. The cell suspension was centrifuged for 5 min at 500 g at 4°C and resuspended in DMEM/F12 medium supplemented with B27 and N2 (Invitrogen), EGF (50 ng/ml), bFGF (50 ng/ml), IGF (25 ng/ml), CHIR99021 (GSK-3β inhibitor, 3 μM, Merck), valproic acid (HDAC inhibitor, 1 mM, Sigma), 2-phospho-L-ascorbic acid (280 μM, Stemcell Technologies) and 0.01% ampicillin (Sigma). Cells were plated at 2,000 cells per well on 96 wells plate (Corning Costar; ultra-low attachment, round-bottom) to allow aggregation at 37°C. On day 1, Matrigel (GF-depleted, Corning; 2% stock) was added to a final concentration of 0.18 mg/ml. On day 3, cells were transferred to 24 wells plate (ultra-low attachment; Corning Costar), pooling the organoid aggregates from 4 to 5 wells (96 well-plate) to one 24-well, culturing at 37°C and exchanging half medium and Matrigel every other day, On day 10, organoids were differentiated by replacing medium with DMEM/F12 supplemented with B27, N2, CHIR99021 (3 μM), and Notch inhibitors CPD3 (5 μM) or LY411575 (5 μM), and culture was continued as above for another 10 days.
For staining and imaging, organoids were allowed to adhere ON onto transwell-permeable support membranes (Corning) in 12-well plates coated with 100% Matrigel. […] Compiled Z-projections were processed (FIJI, ver2.0) and hair cells quantified on individual planes with manual cell counter plugin, by evaluation of cytosolic expression and nuclear exclusion of Myo7a. […]

| IC50 ([1]; Homo sapiens) [nM] | IC50 [1] [nM] | SMILES | Hair cell numbers during differentiation ([2]; diff D20 vs exp D10, p < 0.05) | Total hair cells per organoid prior to normalization [2] |
| --- | --- | --- | --- | --- |
| 17.3 |  | COc1ccc2c(c1)N1CCC(C)(C)C1=CC(=O)[C@H]2NC(=O)[C@H](C)NC(=O)CCC(F)(F)F [CPD3] | significantly increased | 22.8 ± 18.0 |
|  | 0.4 | C[C@H](NC(=O)[C@@H](O)c1cc(F)cc(F)c1)C(=O)N[C@@H]1C(=O)N(C)c2ccccc2-c2ccccc21 [LY411575] |  | 17.17 ± 20.9 |
